Patent US4259328A, “Morpholino pyridazinylhydrazones” (Richter Gedeon Vegyeszeti Gyar Rt, priority 1977, dated 1981)
Like-named read-outs stand apart in the source and are kept apart here.

Tests used:
dopamine-β-hydroxylase = molecular target: T1, dopamine-β-hydroxylase (Bos taurus, UniProt P15101); experiment: Dopamine-β-hydroxylase inhibiting activity (DBH) on bovine adrenal (gland) preparations; format: biochemical; details: read-out: Enzyme inhibiting activity, DBH; for inhibition at 100 µM: 10^-4 mole/liter; for inhibition at 10 µM: 10^-5 mole/liter
T1 construct: from tissue; host or cells: bovine adrenal (gland) preparations
T1 sequence (P15101 1-610): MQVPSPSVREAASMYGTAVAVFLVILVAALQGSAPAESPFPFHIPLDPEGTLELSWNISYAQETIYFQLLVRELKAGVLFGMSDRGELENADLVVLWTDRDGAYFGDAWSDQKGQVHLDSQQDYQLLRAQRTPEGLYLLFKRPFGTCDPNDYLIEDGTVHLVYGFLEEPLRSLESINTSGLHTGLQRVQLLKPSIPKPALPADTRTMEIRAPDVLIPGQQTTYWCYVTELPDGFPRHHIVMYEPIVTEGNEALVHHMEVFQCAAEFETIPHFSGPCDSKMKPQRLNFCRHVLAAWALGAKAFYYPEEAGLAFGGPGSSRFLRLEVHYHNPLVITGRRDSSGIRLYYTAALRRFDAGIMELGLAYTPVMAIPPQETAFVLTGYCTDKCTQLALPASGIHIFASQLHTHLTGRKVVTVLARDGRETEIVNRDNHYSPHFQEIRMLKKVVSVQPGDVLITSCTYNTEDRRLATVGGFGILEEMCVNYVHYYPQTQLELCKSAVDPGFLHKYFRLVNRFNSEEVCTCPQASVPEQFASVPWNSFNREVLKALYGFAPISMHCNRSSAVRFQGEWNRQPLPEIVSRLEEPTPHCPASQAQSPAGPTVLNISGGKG
Protocol: Dopamine-β-hydroxylase inhibiting activity (DBH inhibiting activity) of the compounds according to the invention was tested on bovine adrenal (gland) preparations by a modified version of Nagatsu's method [B.B. Acta, 139 319 (1967)].
(§1) Inhibiting effect of several compounds encompassed by the formula I in comparison with some known compounds is listed in the following Table I.

[1] = Acute toxicity (LD50) on mice; details: mouse, in vivo, po
[2] = test system: spontaneous hypertensive rats (Wistar-Okamoto rats); experiment: Blood pressure lowering activity, systolic blood pressure of waking spontaneous hypertensive rats, oral; format: in vivo, rat; details: for change in vivo at 50 mg/kg / change in vivo at 20 mg/kg / change in vivo at 2.5 mg/kg: Rattus norvegicus, oral, read-out: Reduction in blood pressure; for significant blood pressure lowering activity: ≥-15%
Protocol: Blood pressure lowering activity of the new compounds according to the invention was tested on spontaneous hypertensive rats (Wistar-Okamoto rats) following the method described in Arzn. Forsch., 6, 222 (1956). Systolic blood pressure of waking animals was measured in arteria caudalis 4, 24, 48 and 72 hours after the oral administration of the test compounds.

tyrosine-hydroxylase = molecular target: T2, tyrosine-hydroxylase (Rattus norvegicus, UniProt P04177); experiment: In vitro tyrosine-hydroxylase inhibiting activity (TH) on rat adrenal homogenate; format: biochemical; details: read-out: Enzyme inhibiting activity, TH; for inhibition at 100 µM: 10^-4 mole/liter; for inhibition at 10 µM: 10^-5 mole/liter
T2 construct: on rat adrenal homogenate; from tissue; host or cells: rat adrenal homogenate
T2 sequence (P04177 whole entry): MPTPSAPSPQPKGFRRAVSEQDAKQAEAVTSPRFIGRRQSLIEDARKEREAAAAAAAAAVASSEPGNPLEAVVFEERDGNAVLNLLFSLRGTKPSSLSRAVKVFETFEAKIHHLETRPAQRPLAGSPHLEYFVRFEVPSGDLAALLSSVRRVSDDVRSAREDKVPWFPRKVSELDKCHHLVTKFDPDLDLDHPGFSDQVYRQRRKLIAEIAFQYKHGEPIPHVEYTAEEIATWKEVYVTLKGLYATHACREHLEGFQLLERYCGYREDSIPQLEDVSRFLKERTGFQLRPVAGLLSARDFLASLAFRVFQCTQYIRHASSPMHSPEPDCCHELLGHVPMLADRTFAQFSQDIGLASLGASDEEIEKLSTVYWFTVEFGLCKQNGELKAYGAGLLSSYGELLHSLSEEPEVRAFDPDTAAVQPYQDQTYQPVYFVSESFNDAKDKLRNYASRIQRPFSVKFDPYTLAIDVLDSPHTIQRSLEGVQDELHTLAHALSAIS
Protocol: In vitro tyrosine-hydroxylase inhibiting activity (TH inhibiting activity) of the new compounds according to the invention was tested by the method of Nagatsu [Anal. Biochem., 9, 122 (1964)] on rat adrenal homogenate. Radioactive tyrosine was purified by the method elaborated by Ikeda [J. Biol. Chem., 241, 4452 (1966)]. TH activity of the rat adrenal homogenate amounted to […] nmoles/mg protein/60 min.
as §1

inhibition at 100 µM (dopamine-β-hydroxylase) [%]	inhibition at 10 µM (dopamine-β-hydroxylase) [%]	inhibition at 100 µM (tyrosine-hydroxylase) [%]	inhibition at 10 µM (tyrosine-hydroxylase) [%]	SMILES	LD50 [1] [mg/kg]	change in vivo at 50 mg/kg ([2]; 4 hours) [%]	change in vivo at 50 mg/kg ([2]; 24 hours) [%]	significant blood pressure lowering activity [2] [%]	also measured
84	10	100	85	c1cnnc(NN=C2CCCCC2)c1 [Example 12, Cyclohexylidene-3-pyridazinylhydrazone]	–	–	–	–	–
–	–	–	–	CC(CC(=O)OC(C)(C)C)=NNc1ccc(C(N)=O)nn1 [Example 56, 3-(tert.-Butoxycarbonyl)-2-propylidene-(3-carbamoyl-6-pyridazinyl) hydrazine]	> 200	–	–	≥ -15	change in vivo at 20 mg/kg ([2]; 4 hours): -20%; change in vivo at 20 mg/kg ([2]; 24 hours): 0%
100	56	100	50	CCOC(=O)CC(C)=NNc1cccnn1 [Example 22, 3-(Ethoxycarbonyl)-2-propylidene-(3-pyridazinyl)hydrazone]	–	–	–	–	–
–	–	–	–	CCOC(=O)CCCC(C)=NNc1ccc(Cl)nn1 [Example 26]	200	-38	-29	≥ -15	–
80	0	100	75	CC12CCC(CC1=NNc1cccnn1)C2(C)C (centres unmarked) [Example 3, 1,7,7-Trimethy-2-bicyclo-[2,2,1]heptylidene-3-pyridazinylhydrazone]	–	–	–	–	–
88	32	100	50	O=C(O)C1CCCCC1=NNc1ccc(Cl)nn1 (centres unmarked) [Example 18, 2-Carboxy-1-cyclohexylidene-3-chloro-6-pyridazinylhydrazone]	–	–	–	–	–
–	–	–	–	CCOC(=O)CC(CC)=NNc1ccc(Cl)nn1 [Example 27, 1-(Ethoxycarbonyl)-2-butylidene-3-chloro-6-pyridazinylhydrazone]	–	–	–	≥ -15	–
88	32	100	50	CC1CCCCC1=NNc1ccc(Cl)nn1 (centres unmarked) [Example 15, 2-Methyl-1-cyclohexylidene-3-chloro-6-pyridazinylhydrazone]	–	–	–	–	–
100	41	–	–	CCOC(=O)CC(=NNc1ccc(Cl)nn1)c1cccnc1 [Example 37, 1-(Ethoxycarbonyl)-2-(3-pyridyl)-2-ethylidene-3-chloro-6-pyridazinylhydrazone]	–	–	–	–	–
–	–	–	–	CC(CCC(=O)O)=NNc1ccc(N2CCOCC2)nn1 [Example 48, 4-Carboxy-2-butylidene-3-morpholino-6-pyridazinylhydrazone]	200	–	–	≥ -15	change in vivo at 2.5 mg/kg ([2]; 4 hours): -33%; change in vivo at 2.5 mg/kg ([2]; 24 hours): -8%
–	–	–	–	CCOC(=O)C(C)C(C)=NNc1ccc(Cl)nn1 (centres unmarked) [Example 25, 3-(Ethoxycarbonyl)-2-butylidene-3-chloro-6-pyridazinylhydrazone]	200	-33	-17	≥ -15	–
–	–	–	–	CC(CCC(=O)O)=NNc1ccc(Cl)nn1 [Example 38, 4-Carboxy-2-butylidene-3-chloro-6-pyridazinylhydrazone]	200	-34	-27	≥ -15	–
–	–	–	–	CC(CC(=O)OC(C)(C)C)=NNc1ccc(C)nn1 [Example 53, 3-(tert.-Butoxycarbonyl)-2-propylidene-(3-methyl-6-pyridazinyl) hydrazone]	200	-32	-27	≥ -15	–
100	40	–	–	CCOC(=O)CC(=NNc1ccc(Cl)nn1)c1ccccc1 [Example 34, 1-(Ethoxycarbonyl)-2-phenyl-2-ethylidene-3-chloro-6-pyridazinylhydrazone]	–	–	–	–	–
90	10	95	40	CC(=NNc1cccnn1)c1ccccc1 [Example 13, 1-Phenyl-1-ethylidene-3-pyridazinylhydrazone]	–	–	–	–	–
–	–	–	–	c1cc(N2CCOCC2)nnc1NN=C1CCCCC1 [Example 10, Cyclohexylidene-3-morpholino-6-pyridazinylhydrazone]	< 200	–	–	≥ -15	change in vivo at 2.5 mg/kg ([2]; 4 hours): -41%; change in vivo at 2.5 mg/kg ([2]; 24 hours): -26%
0	0	100	60	CC(N)(Cc1ccc(O)cc1)C(=O)O (racemic) [D,L-α-methyl-4-hydroxy-phenyl-alanine, reference compound]	–	–	–	–	–
100	50	–	–	COC(=O)CC(C)=NNc1ccc(Cl)nn1 [Example 24, 3-(Methoxycarbonyl)-2-propylidene-3-chloro-6-pyridazinylhydrazone]	–	–	–	–	–
–	–	–	–	CC(CCCC(=O)O)=NNc1ccc(N2CCOCC2)nn1 [Example 57, 5-Carboxy-2-pentylidene-3-morpholino-6-pyridazinylhydrazone]	200	–	–	≥ -15	change in vivo at 2.5 mg/kg ([2]; 4 hours): -28%; change in vivo at 2.5 mg/kg ([2]; 24 hours): -16%
–	–	–	–	CC(CCC(=O)OC(C)(C)C)=NNc1ccc(Cl)nn1 [Example 43, 4-(tert.-Butoxycarbonyl)-2-butylidene-3-chloro-6-pyridazinylhydrazone]	200	-32	-18	≥ -15	–

SMILES	inhibition at 100 µM (dopamine-β-hydroxylase) [%]	inhibition at 10 µM (dopamine-β-hydroxylase) [%]	inhibition at 100 µM (tyrosine-hydroxylase) [%]	inhibition at 10 µM (tyrosine-hydroxylase) [%]	LD50 [1] [mg/kg]	change in vivo at 50 mg/kg ([2]; 4 hours) [%]	change in vivo at 50 mg/kg ([2]; 24 hours) [%]	significant blood pressure lowering activity [2] [%]	also measured
COC(=O)CCC(C)=NNc1ccc(Cl)nn1 [Example 23]	70	50	–	–	200	-21	-8	≥ -15	–
CCOC(=O)CC=NNc1ccc(Cl)nn1 [Example 65, 2-(Ethoxycarbonyl)-1-ethylidene-(3-chloro-6-pyridazinyl)hydrazone]	73	44	–	–	> 200	-18	-23	≥ -15	–
CC(CCCC(=O)O)=NNc1ccc(Cl)nn1 [Example 50, 5-Carboxy-2-pentylidene-3-chloro-6-pyridazinylhydrazone]	73	0	–	–	200	–	–	≥ -15	change in vivo at 20 mg/kg ([2]; 4 hours): -28%; change in vivo at 20 mg/kg ([2]; 24 hours): -30%
CCOC(=O)CCC(C)=NNc1ccc(Cl)nn1 [Example 62, 4-(Ethoxycarbonyl)-2-butylidene-(3-chloro-6-pyridazinl)hydrazone]	60	–	–	–	200	-29	-26	≥ -15	–
CCCCc1ccc(C(=O)O)nc1 [Fusaric acid, reference compound]	100	100	0	0	–	–	–	–	–
CCOC(=O)CCCCC(C)=NNc1ccc(Cl)nn1 [Example 49, 6-(Ethoxycarbonyl)-2-hexylidene-3-chloro-6-pyridazinylhydrazone]	66	50	–	–	< 200	–	–	≥ -15	change in vivo at 20 mg/kg ([2]; 4 hours): -22%; change in vivo at 20 mg/kg ([2]; 24 hours): -13%
